The source of these data is patent US9376442B2, “Methylpyrrolopyrimidinecarboxamides” (Takeda GmbH, priority 2009, dated 2016).

Structures are written as SMILES.

One experiment concerns the target T1, PDE5A1 (Homo sapiens, UniProt O76074).
T1 construct: from tissue; host or cells: human platelets from fresh donor blood (10,000 x g supernatant of sonicated lysate)
The experiment can be described thus: Inhibition of type 5 phosphodiesterase (PDE5) activity, modified SPA test with human platelet lysate. The following applies: 0.5 μM cGMP, read-out: PDE5A1 inhibitory values [measured as −log IC50 (mol/l)] (converted). It counts as biochemical. The gist of the method: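 Scintillation proximity assay with [3H]cGMP tracer at 0.5 μM total cGMP, stopped after 15 min with beads containing IBMX. PDE3 and PDE2 activities suppressed with motapizone (1 μM) and a PDE2 inhibitor (10 nM). Human platelet supernatant served as the enzyme, with compound preincubated 5 min at 37° C; IC50 values from concentration-effect curves.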

For another experiment, the target named is T2, PDE4B1 (Homo sapiens, UniProt Q07343).
T2 construct: made in house; host or cells: SF21 insect cells (baculovirus; pCRBac vector), 1000 x g supernatant of homogenate
T2 sequence (Q07343 whole entry): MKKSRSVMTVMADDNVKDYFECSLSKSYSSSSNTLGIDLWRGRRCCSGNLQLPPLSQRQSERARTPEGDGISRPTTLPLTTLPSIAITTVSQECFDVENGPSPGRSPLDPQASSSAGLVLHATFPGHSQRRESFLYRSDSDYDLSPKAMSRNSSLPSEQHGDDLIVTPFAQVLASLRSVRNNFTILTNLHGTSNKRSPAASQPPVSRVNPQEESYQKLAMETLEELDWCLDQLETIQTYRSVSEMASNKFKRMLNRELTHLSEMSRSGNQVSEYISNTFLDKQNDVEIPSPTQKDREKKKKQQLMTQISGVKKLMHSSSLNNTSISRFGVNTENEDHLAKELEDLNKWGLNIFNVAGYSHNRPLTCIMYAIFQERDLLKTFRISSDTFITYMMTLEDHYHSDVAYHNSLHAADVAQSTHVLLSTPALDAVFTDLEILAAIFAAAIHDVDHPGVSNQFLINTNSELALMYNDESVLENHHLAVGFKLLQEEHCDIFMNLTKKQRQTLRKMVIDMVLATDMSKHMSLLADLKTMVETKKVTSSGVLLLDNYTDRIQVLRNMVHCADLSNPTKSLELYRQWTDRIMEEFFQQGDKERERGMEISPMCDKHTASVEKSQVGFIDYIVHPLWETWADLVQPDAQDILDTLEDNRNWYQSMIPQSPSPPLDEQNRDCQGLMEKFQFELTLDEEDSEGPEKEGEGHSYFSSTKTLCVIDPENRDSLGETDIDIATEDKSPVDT
The experiment can be described thus: Inhibition of type 4 phosphodiesterase (PDE4) activity, modified SPA test with recombinant PDE4B1 expressed in SF21 insect cells. It counts as biochemical. To be noted: recombinant PDE4B1, 0.5 μM cAMP, read-out: PDE4B1 inhibitory values [measured as −log IC50 (mol/l)] (converted). Here is the method: Method for Measuring Inhibition of the Type 4 Phosphodiesterase (PDE4) Activity:
The PDE4B1 (GB no. L20966) was a gift of Prof. M. Conti (Stanford University, USA). It was amplified from the original plasmid (pCMV5) via PCR with primers Rb18 (5′-[…]-3′) and Rb10 (5′-[…]-3′) and cloned into the pCRBac vector (Invitrogen, Groningen, NL).
The recombinant baculovirus was prepared by means of homologous recombination in SF9 insect cells. The expression plasmids were cotransfected with Baculo-Gold DNA (Pharmingen, Hamburg) using a standard protocol (Pharmingen, Hamburg). Wt virus-free recombinant virus supernatants were selected using plaque assay methods. After that, high-titre virus supernatants were prepared by amplifying 3 times. PDE4B1 was expressed in SF21 cells by infecting 2×10^6 cells/ml with an MOI (multiplicity of infection) between 1 and 10 in the serum-free medium Insect Express Sf9-S2 (PAA, Pasching, Austria). The cells were cultured at 28° C. for 48-72 hours, after which they were pelleted for 5-10 min at 1000×g and 4° C.
The SF21 insect cells were resuspended, at a concentration of approx. 10^7 cells/ml, in ice-cold (4° C.) homogenization buffer (20 mM Tris, pH 8.2, containing the following additions: 140 mM NaCl, 3.8 mM KCl, 1 mM EGTA, 1 mM MgCl2, 10 mM (3-mercaptoethanol, 2 mM benzamidine, 0.4 mM Pefablock, 10 μM leupeptin, 10 μM pepstatin A, 5 μM trypsin inhibitor) and disrupted by ultrasonication. The homogenate was then centrifuged for 10 min at 1000×g and the supernatant was stored at −80° C. until subsequent use (see below). The protein content was determined by the Bradford method (BioRad, Munich) using BSA as the standard.
PDE4B1 activity was inhibited by the compounds according to the present subject matter in a modified SPA (scintillation proximity assay) test, supplied by Amersham Biosciences (see procedural instructions “phosphodiesterase [3H]cAMP SPA enzyme assay, code TRKQ 7090”), carried out in 96-well microtitre plates (MTP's). The test volume is 100 μl and contains 20 mM Tris buffer (pH 7.4), 0.1 mg/ml of BSA, 5 mM Mg^2+, 0.5 μM cAMP (including about 50,000 cpm of [3H]cAMP), 1 μl of the respective substance dilution in DMSO and sufficient recombinant PDE (1000×g supernatant, see above) to ensure that 10-20% of the cAMP is converted under the said experimental conditions. […] After a preincubation of 5 min at 37° C., the reaction is started by adding the substrate (cAMP) and the assays are incubated for a further 15 min; after that, they are stopped by adding SPA beads (50 μl). In accordance with the manufacturer's instructions, the SPA beads had previously been resuspended in water, but were then diluted 1:3 (v/v) in water; the diluted solution also contains 3 mM IBMX to ensure a complete PDE activity stop. After the beads have been sedimented (>30 min), the MTP's are analyzed in commercially available luminescence detection devices. The corresponding IC50 values of the compounds for the inhibition of PDE4B1 activity are determined from the concentration-effect curves by means of non-linear regression.

`CC(=O)N[C@H]1CC[C@H](NC(=O)c2c(C)[nH]c3c(-c4cc(C(F)F)ccc4OCC4CC4)ncnc23)[C@H](F)C1` (relative stereo) [Example P169, N-[(1S*,2R*,4S*)-4-(Acetylamino)-2-fluorocyclohexyl]-4-[2-(cyclopropylmethoxy)-5-(difluoromethyl)phenyl]-6-methyl-5H-pyrrolo[3,2-d]pyrimidine-7-carboxamide]: the IC50 is less than 0.001 µM at PDE5A1 and less than 0.1 µM on PDE4B1.
On to `CCC(=O)N[C@H]1CC[C@H](NC(=O)c2c(C)[nH]c3c(-c4cc(C(F)F)ccc4OCC4CC4)ncnc23)[C@H](F)C1` (relative stereo) [Example P170, 4-[2-(Cyclopropylmethoxy)-5-(difluoromethyl)phenyl]-N-[(1S*,2R*,4S*)-2-fluoro-4-(propanoylamino)cyclohexyl]-6-methyl-5H-pyrrolo[3,2-d]pyrimidine-7-carboxamide], for which the IC50 at PDE5A1 is less than 0.001 µM; on PDE4B1 it was less than 0.1 µM.
For `COCC(=O)N[C@H]1CC[C@H](NC(=O)c2c(C)[nH]c3c(-c4cc(C(F)F)ccc4OCC4CC4)ncnc23)[C@H](F)C1` (relative stereo) [Example P171, 4-[2-(Cyclopropylmethoxy)-5-(difluoromethyl)phenyl]-N-{(1S*,2R*,4S*)-2-fluoro-4-[(methoxyacetyl)amino]cyclohexyl}-6-methyl-5H-pyrrolo[3,2-d]pyrimidine-7-carboxamide] the same measures were less than 0.001 µM and less than 0.1 µM.
Taken in the same sequence, the figures for `COCC(=O)N[C@H]1CC[C@H](NC(=O)c2c(C)[nH]c3c(-c4cc(C(F)F)ccc4OCC4CC4)ncnc23)C[C@@H]1C` (relative stereo) [Example P191, 4-[2-(Cyclopropylmethoxy)-5-(difluoromethyl)phenyl]-N-{(1S*,3S*,4S*)-4-[(methoxyacetyl)amino]-3-methylcyclohexyl}-6-methyl-5H-pyrrolo[3,2-d]pyrimidine-7-carboxamide] were less than 0.001 µM and less than 0.1 µM.
As to `CC(=O)N[C@H]1CC[C@H](NC(=O)c2c(C)[nH]c3c(-c4cc(C(F)F)ccc4OCC4CC4)ncnc23)C[C@H]1F` (relative stereo) [Example P199, N-[(1S*,3R*,4S*)-4-(Acetylamino)-3-fluorocyclohexyl]-4-[2-(cyclopropylmethoxy)-5-(difluoromethyl)phenyl]-6-methyl-5H-pyrrolo[3,2-d]pyrimidine-7-carboxamide], the IC50 at PDE5A1 was less than 0.001 µM; on PDE4B1, less than 0.1 µM.
Taken in the same sequence, the figures for `CCC(=O)N[C@H]1CC[C@H](NC(=O)c2c(C)[nH]c3c(-c4cc(C(F)F)ccc4OCC4CC4)ncnc23)C[C@H]1F` (relative stereo) [Example P200, 4-[2-(Cyclopropylmethoxy)-5-(difluoromethyl)phenyl]-N-[(1S*,3R*,4S*)-3-fluoro-4-(propanoylamino)cyclohexyl]-6-methyl-5H-pyrrolo[3,2-d]pyrimidine-7-carboxamide] were less than 0.001 µM and less than 0.1 µM.
For `COCC(=O)N[C@H]1CC[C@H](NC(=O)c2c(C)[nH]c3c(-c4cc(C(F)F)ccc4OCC4CC4)ncnc23)C[C@H]1F` (relative stereo) [Example P201, 4-[2-(Cyclopropylmethoxy)-5-(difluoromethyl)phenyl]-N-{(1S*,3R*,4S*)-3-fluoro-4-[(methoxyacetyl)amino]cyclohexyl}-6-methyl-5H-pyrrolo[3,2-d]pyrimidine-7-carboxamide] the same measures were less than 0.001 µM and less than 0.1 µM.
Taken in the same sequence, the figures for `CC(=O)N[C@H]1CC[C@H](NC(=O)c2c(C)[nH]c3c(-c4cc(C(F)F)ccc4OCC4CC4)ncnc23)C[C@@H]1F` (relative stereo) [Example P209, N-[(1S*,3S*,4S*)-4-(Acetylamino)-3-fluorocyclohexyl]-4-[2-(cyclopropylmethoxy)-5-(difluoromethyl)phenyl]-6-methyl-5H-pyrrolo[3,2-d]pyrimidine-7-carboxamide] were less than 0.001 µM and less than 0.1 µM.
With `CCC(=O)N[C@H]1CC[C@H](NC(=O)c2c(C)[nH]c3c(-c4cc(C(F)F)ccc4OCC4CC4)ncnc23)C[C@@H]1F` (relative stereo) [Example P210, 4-[2-(Cyclopropylmethoxy)-5-(difluoromethyl)phenyl]-N-[(1S*,3S*,4S*)-3-fluoro-4-(propanoylamino)cyclohexyl]-6-methyl-5H-pyrrolo[3,2-d]pyrimidine-7-carboxamide], the IC50 at PDE5A1 was less than 0.001 µM; at PDE4B1, less than 0.1 µM.
For `COCC(=O)N[C@H]1CC[C@H](NC(=O)c2c(C)[nH]c3c(-c4cc(C(F)F)ccc4OCC4CC4)ncnc23)C[C@@H]1F` (relative stereo) [Example P211, 4-[2-(Cyclopropylmethoxy)-5-(difluoromethyl)phenyl]-N-{(1S*,3S*,4S*)-3-fluoro-4-[(methoxyacetyl)amino]cyclohexyl}-6-methyl-5H-pyrrolo[3,2-d]pyrimidine-7-carboxamide] the same measures were less than 0.001 µM and less than 0.1 µM.
Consider `CC(=O)N1CCC(NC(=O)c2c(C)[nH]c3c(-c4cc(F)ccc4OCC4CC4)ncnc23)CC1` [Example E37, 4-(2-Cyclopropylmethoxy-5-fluoro-phenyl)-6-methyl-5H-pyrrolo[3,2-d]pyrimidine-7-carboxylic acid (1-acetyl-piperidin-4-yl)-amide], for which the figures for the IC50 at PDE5A1 and at PDE4B1 were less than 0.001 µM and 0.1 to 1 µM, respectively.
For the molecule `CCC(=O)N1CCC(NC(=O)c2c(C)[nH]c3c(-c4cc(F)ccc4OCC4CC4)ncnc23)CC1` [Example E38, 4-[2-(cyclopropylmethoxy)-5-fluorophenyl]-6-methyl-N-(1-propionylpiperidin-4-yl)-5H-pyrrolo[3,2-d]pyrimidine-7-carboxamide], the values for the IC50 at PDE5A1 and at PDE4B1 were less than 0.001 µM and 0.1 to 1 µM, respectively.
For `COCC(=O)N1CCC(NC(=O)c2c(C)[nH]c3c(-c4cc(F)ccc4OCC4CC4)ncnc23)CC1` [Example E39, 4-(2-Cyclopropylmethoxy-5-fluoro-phenyl)-6-methyl-5H-pyrrolo[3,2-d]pyrimidine-7-carboxylic acid [1-(2-methoxy-acetyl)-piperidin-4-yl]-amide] the same measures were 0.001 to 0.01 µM and 0.1 to 1 µM.
Take `CCOC(=O)N1CCC(NC(=O)c2c(C)[nH]c3c(-c4cc(F)ccc4OCC4CC4)ncnc23)CC1` [Example E40, Ethyl 4-[({4-[2-(cyclopropylmethoxy)-5-fluorophenyl]-6-methyl-5H-pyrrolo[3,2-d]pyrimidin-7-yl}carbonyl)amino]piperidine-1-carboxylate]: the figures for the IC50 on PDE5A1 and at PDE4B1 were less than 0.001 µM and 0.1 to 1 µM, respectively.
For `CC(=O)N[C@H]1CC[C@H](NC(=O)c2c(C)[nH]c3c(-c4cc(F)ccc4OCC4CC4)ncnc23)CC1` [Example E41, N-(trans-4-acetamidocyclohexyl)-4-[2-(cyclopropylmethoxy)-5-fluorophenyl]-6-methyl-5H-pyrrolo[3,2-d]pyrimidine-7-carboxamide] the same measures were less than 0.001 µM and less than 0.1 µM.
Taken in the same sequence, the figures for `CCC(=O)N[C@H]1CC[C@H](NC(=O)c2c(C)[nH]c3c(-c4cc(F)ccc4OCC4CC4)ncnc23)CC1` [Example E42, 4-[2-(Cyclopropylmethoxy)-5-fluorophenyl]-6-methyl-N-[trans-4-(propionylamino)cyclohexyl]-5H-pyrrolo[3,2-d]pyrimidine-7-carboxamide] were less than 0.001 µM and less than 0.1 µM.
